Measured values reported in US20220142958A1, “MEDICINAL COMPOSITION HAVING EXCELLENT STABILITY” (EA Pharma Co., Ltd., priority 2019, published 2022).

Columns and labels:
[1] = Example 4A: residual ratio and reaction rate constant after storage at 60° C.; assay type: physicochemical; settings: for Reaction rate constant at 60° C. / Residual ratio (%): 0.1 mg/mL
Protocol: Compound A1 was dissolved in each of the buffer solutions shown in Table 10 so that a concentration was 0.1 mg/mL. Each of these solutions was dispensed into a glass vial and stored at 60° C. After the storage, a residual ratio was calculated according to a test method described below.
Test method: In the solution after the storage, the residual ratio was analyzed according to a normal method using a liquid chromatography apparatus Prominence (manufactured by Shimadzu Corporation) and an ultraviolet absorptiometer (measurement wavelength: 254 nm, Prominence (manufactured by Shimadzu Corporation)). At this time, SUMIPAX ODS (3 mm×150 mm, 5 μm, manufactured by SCAS) was used as a column.
The calculation for obtaining the residual ratio (%) of Compound A1 during each storage period is as follows.
Residual ratio (%) of Compound A1 during each storage period=peak area of Compound A1 in sample solution/peak area of Compound A1 in standard solution×100
Here, “Compound A1 in standard solution” refers to a solution obtained by dissolving Compound A1 in each of the buffer solutions shown in Table 10 so that a concentration was 0.1 mg/mL, and then storing the solution at 5° C. It was clear from the results of Example 1 that the solution of Compound A1 was stable when being stored at 5° C., and thus, the solution was used as the standard solution.
The reaction rate constant at 60° C. was calculated using the obtained residual ratio.

[2] = Non-clinical studies of excretion and elimination (normal rat); assay type: in vivo
[3] = test system: healthy Japanese male adults; assay: Phase I clinical trial (P1), single intravenous dose; assay type: in vivo, human
Protocol: Thirty-two healthy Japanese male adults were given a single intravenous dose of the test drug (Compound A1) at 0.01 mg, 0.1 mg, 1.0 mg or 2.5 mg in a fasted state to study the pharmacokinetics, pharmacodynamics and safety by a double-blind test using a placebo as a control. Here, the trial drug was administered by diluting a required dose taken from the Compound A1 vial formulation prepared as follows with sterilized water for injection, and filling a syringe with the resultant in accordance with the dose to be administered.
A vial formulation encapsulating 100 mg of Compound A1 in terms of a dehydrate, and sodium chloride, disodium hydrogen phosphate dodecahydrate, and sodium dihydrogen phosphate dihydrate as additives in 10 ml of sterilized water for injection

serum iPTH = assay: Estimation of EC50, PK and clinically effective dose in patients with renal failure; design: species or system human
Text: EC50 value in patient with renal failure was estimated based on the calculated EC50 value in healthy adults and the results from the same analysis in normal rats and adenine-treated rat models (pathological rat models). […] Since the difference in the EC50 value between rats in normal state and pathological state is presumed to be caused by the changes in PK that are considered to greatly vary between normal state and pathological state, similar tendency is expected in human as well.
The result from PK fitting, and the contribution rate of renal elimination of the drug (3.2%) calculated using PK-sim (registered trademark) were used to simulate PK prediction in the patients with renal failure. […] As a result, administration of a dose of 0.06 mg/man was estimated to maintain a concentration higher than 1.4 ng/mL for 72 hours (FIG. 2-8).

[4] = test system: SHPT patients on maintenance hemodialysis; assay: Phase I/II clinical trial, repeated administration; assay type: in vivo, human; settings: for percentage decrease in the serum iPTH concentration: Day 22 (three days after the ninth administration)
Protocol: Targeting SHPT patients on maintenance hemodialysis, pharmacokinetics, pharmacodynamics and safety upon single or repeated intravenous administration of Compound A1 were examined by conducting a double-blind test using a placebo as a control.
Repeated administration: Based on the clinically effective dose calculated in Reference Example 5, the doses were given in 3 steps, namely, 0.05 mg, 0.1 mg, and 0.2 mg. The trial drug was (intravenously) infused from the venous side of the dialysis circuit before the end of dialysis three times a week for 22 days (total of 9 times) starting from the first day of administration of the trial drug. Here, the trial drug was administered by diluting a required dose taken from the Compound A1 vial formulation prepared as follows with sterilized water for injection, and filling a syringe with the resultant in accordance with the dose to be administered.
Each item was evaluated according to the predetermined evaluation schedule.
A vial formulation encapsulating 1 mg of Compound A1 in terms of a dehydrate, and sodium chloride, disodium hydrogen phosphate dodecahydrate, and sodium dihydrogen phosphate dihydrate as additives in 10 ml of sterilized water for injection

[5] = single intravenous doses of 0.01, 0.1, 1.0 and 2.5 mg

## Cc1c(Cl)cc(S(=O)(=O)[O-])cc1NC(=O)NC[C@H](N)C(=O)O.[Na+] [Compound A1, sodium 3-{[(2S)-2-amino-2-carboxyethyl]carbamoylamino}-5-chloro-4-methylbenzenesulfonate]
[1]; pH 1.1
  Reaction rate constant at 60° C.: 6.3 × 10^−4
[1]; pH 1.1, 60° C., 24 hours
  Residual ratio (%): 97.8%
[1]; pH 1.1, 60° C., 113 hours
  Residual ratio (%): 92.7%
[1]; pH 1.1, 60° C., 161 hours
  Residual ratio (%): 90.2%
[1]; pH 2.0
  Reaction rate constant at 60° C.: 6.5 × 10^−4
[1]; pH 2.0, 60° C., 24 hours
  Residual ratio (%): 98.1%
[1]; pH 2.0, 60° C., 113 hours
  Residual ratio (%): 92.4%
[1]; pH 2.0, 60° C., 161 hours
  Residual ratio (%): 90.1%
[1]; pH 3.0
  Reaction rate constant at 60° C.: 7.5 × 10^−4
[1]; pH 3.0, 60° C., 24 hours
  Residual ratio (%): 98.3%
[1]; pH 3.0, 60° C., 113 hours
  Residual ratio (%): 91.5%
[1]; pH 3.0, 60° C., 161 hours
  Residual ratio (%): 88.9%
[1]; pH 4.0
  Reaction rate constant at 60° C.: 7.6 × 10^−4
[1]; pH 4.0, 60° C., 24 hours
  Residual ratio (%): 98.1%
[1]; pH 4.0, 60° C., 113 hours
  Residual ratio (%): 91.5%
[1]; pH 4.0, 60° C., 161 hours
  Residual ratio (%): 88.5%
[1]; pH 5.0
  Reaction rate constant at 60° C.: 7.9 × 10^−4
[1]; pH 5.0, 60° C., 24 hours
  Residual ratio (%): 98.0%
[1]; pH 5.0, 60° C., 113 hours
  Residual ratio (%): 91.3%
[1]; pH 5.0, 60° C., 161 hours
  Residual ratio (%): 88.0%
[1]; pH 6.0
  Reaction rate constant at 60° C.: 7.8 × 10^−4
[1]; pH 6.0, 60° C., 24 hours
  Residual ratio (%): 98.1%
[1]; pH 6.0, 60° C., 113 hours
  Residual ratio (%): 91.5%
[1]; pH 6.0, 60° C., 161 hours
  Residual ratio (%): 88.3%
[1]; pH 7.0
  Reaction rate constant at 60° C.: 8.2 × 10^−4
[1]; pH 7.0, 60° C., 24 hours
  Residual ratio (%): 98.2%
[1]; pH 7.0, 60° C., 113 hours
  Residual ratio (%): 91.0%
[1]; pH 7.0, 60° C., 161 hours
  Residual ratio (%): 87.8%
[1]; pH 1.1 to 7.0
  change of reaction rate constant at 60° C. when the pH of the formulation was changed: not significantly changed
[2]; intravenously administered to a normal rat
  elimination from the plasma: rapidly eliminated
[2]; non-clinical studies
  main route of excretion: renal excretion
[3]; 0.01 mg and higher dose groups
  serum iPTH concentration compared to that before the administration: decreased
[3]; 1.0 mg and higher dose groups
  safety (side effects): non-severe and mild side effects such as vomiting
[3]; relation to given dose
  duration of decreased serum iPTH concentration: extended with the increase in the given dose
[3]; single intravenous doses
  form excreted into the urine: mostly as unchanged substances
  main elimination pathway of the unchanged substance: renal excretion
[3]; [5]
  elimination from the plasma: rapidly eliminated
  form present in the plasma: generally unchanged substances
Serum iPTH; PK simulation
  dose estimated to maintain a concentration higher than 1.4 ng/mL for 72 hours: 0.06 mg/man
Serum iPTH; scaling factor applied to human
  EC50 (estimated): > 1.4 ng/mL
[4]; 0.05 mg dose group
  percentage decrease in the serum iPTH concentration: 8%
[4]; 0.1 mg dose group
  percentage decrease in the serum iPTH concentration: 25%
[4]; 0.2 mg dose group
  percentage decrease in the serum iPTH concentration: 36%
[4]; repeated administration
  accumulating property: no accumulating property
  elimination by dialysis: rapidly eliminated by dialysis
  trough concentration before the dialysis following the longest interval: generally constant
[4]; repeated administration, 0.05 mg dose group (mild)
  decrease in the corrected Ca: observed
[4]; repeated administration, 0.1 mg dose group
  decrease in the corrected Ca: not observed
[4]; repeated administration, 0.2 mg dose group (mild)
  decrease in the corrected Ca: observed
[4]; repeated administration, three times a week for 22 days
  form present in the plasma: mainly as an unchanged substance
